ChEMBL document CHEMBL1909046, “DrugMatrix in vitro pharmacology data”

Legend:
[1] = biological target: Delta-type opioid receptor (Homo sapiens, UniProt P41143); format: cell membranes, HEK293, Membrane; details: hek293; note: in other assays of this panel Not Active means under 50% inhibition at 10 µM
[2] = biological target: T1, 5-hydroxytryptamine receptor 1A (Rattus norvegicus, UniProt P19327); format: cell membranes, CHO-K1, Membrane; details: cho-k1; note: in other assays of this panel Not Active means under 50% inhibition at 10 µM
T1 sequence (P19327 whole entry): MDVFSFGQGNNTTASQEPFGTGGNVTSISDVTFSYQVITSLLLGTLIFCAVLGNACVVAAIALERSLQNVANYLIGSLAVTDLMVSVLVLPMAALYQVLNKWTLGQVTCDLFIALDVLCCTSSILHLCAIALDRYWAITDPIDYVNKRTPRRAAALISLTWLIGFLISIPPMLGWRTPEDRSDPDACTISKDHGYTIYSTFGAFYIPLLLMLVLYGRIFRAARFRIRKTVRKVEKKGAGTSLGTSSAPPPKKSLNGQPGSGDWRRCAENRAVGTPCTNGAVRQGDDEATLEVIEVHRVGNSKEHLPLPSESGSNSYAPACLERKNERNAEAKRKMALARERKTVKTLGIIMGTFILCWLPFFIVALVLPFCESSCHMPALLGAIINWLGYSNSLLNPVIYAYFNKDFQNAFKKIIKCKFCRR

Cannabinoid receptor 1 = Cannabinoid receptor 1 (Homo sapiens, UniProt P21554); format: cell membranes, Membrane; details: chem-1; note: in other assays of this panel Not Active means under 50% inhibition at 10 µM
Cannabinoid receptor 1, sequence (P21554 whole entry): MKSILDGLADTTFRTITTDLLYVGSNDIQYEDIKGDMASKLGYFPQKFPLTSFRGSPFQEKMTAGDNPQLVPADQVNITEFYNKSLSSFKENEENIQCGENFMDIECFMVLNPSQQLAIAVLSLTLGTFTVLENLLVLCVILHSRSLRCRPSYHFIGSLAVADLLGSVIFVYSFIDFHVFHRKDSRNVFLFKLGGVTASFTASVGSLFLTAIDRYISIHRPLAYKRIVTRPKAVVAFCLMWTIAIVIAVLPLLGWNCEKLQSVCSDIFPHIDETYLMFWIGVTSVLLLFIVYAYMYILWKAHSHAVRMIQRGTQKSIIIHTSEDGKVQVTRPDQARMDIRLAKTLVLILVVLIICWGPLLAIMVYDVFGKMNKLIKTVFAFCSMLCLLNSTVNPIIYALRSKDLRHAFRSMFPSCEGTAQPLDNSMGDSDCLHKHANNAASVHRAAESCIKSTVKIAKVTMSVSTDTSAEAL

[3] = biological target: T2, Neuropeptide Y receptor type 1 (Homo sapiens, UniProt P25929); format: cell membranes, Membrane; details: sk-n-mc; note: in other assays of this panel Not Active means under 50% inhibition at 10 µM
T2 sequence (P25929 whole entry): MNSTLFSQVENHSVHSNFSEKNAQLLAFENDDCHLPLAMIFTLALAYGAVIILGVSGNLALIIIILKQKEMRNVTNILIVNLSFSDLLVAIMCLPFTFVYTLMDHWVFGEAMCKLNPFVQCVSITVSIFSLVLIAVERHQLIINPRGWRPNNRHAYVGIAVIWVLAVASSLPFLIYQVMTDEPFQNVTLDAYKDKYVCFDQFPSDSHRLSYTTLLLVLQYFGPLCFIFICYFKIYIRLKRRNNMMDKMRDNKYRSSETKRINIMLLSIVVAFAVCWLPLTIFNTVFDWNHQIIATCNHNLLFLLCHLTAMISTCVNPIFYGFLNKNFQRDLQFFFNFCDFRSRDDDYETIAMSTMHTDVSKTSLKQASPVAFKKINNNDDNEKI

Neutrophil elastase = biological target: T3, Neutrophil elastase (Homo sapiens, UniProt P08246); format: tissue-based
T3 sequence (P08246 whole entry): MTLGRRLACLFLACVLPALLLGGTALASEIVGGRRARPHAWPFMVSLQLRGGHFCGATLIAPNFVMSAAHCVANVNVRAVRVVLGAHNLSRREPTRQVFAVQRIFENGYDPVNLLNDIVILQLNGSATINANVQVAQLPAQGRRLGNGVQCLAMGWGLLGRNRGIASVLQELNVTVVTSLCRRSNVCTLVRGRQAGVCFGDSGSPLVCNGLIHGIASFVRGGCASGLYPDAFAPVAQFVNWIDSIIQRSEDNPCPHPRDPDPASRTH

Endothelin-1 receptor = biological target: T4, Endothelin-1 receptor (Homo sapiens, UniProt P25101); format: cell membranes, Membrane; details: cho-k1; note: in other assays of this panel Not Active means under 50% inhibition at 10 µM
T4 sequence (P25101 whole entry): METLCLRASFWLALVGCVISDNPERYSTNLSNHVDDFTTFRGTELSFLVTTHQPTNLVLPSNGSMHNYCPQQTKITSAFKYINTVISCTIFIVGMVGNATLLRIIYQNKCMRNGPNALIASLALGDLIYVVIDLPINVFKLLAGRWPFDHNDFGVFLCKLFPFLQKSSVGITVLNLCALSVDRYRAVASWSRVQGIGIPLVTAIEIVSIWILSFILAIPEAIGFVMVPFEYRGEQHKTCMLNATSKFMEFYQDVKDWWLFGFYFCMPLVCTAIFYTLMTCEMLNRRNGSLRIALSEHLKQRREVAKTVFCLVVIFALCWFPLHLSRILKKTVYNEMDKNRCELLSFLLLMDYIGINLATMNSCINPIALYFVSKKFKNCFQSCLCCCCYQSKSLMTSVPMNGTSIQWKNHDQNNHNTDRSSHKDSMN

[4] = DRUGMATRIX: Glutamate, Kainate radioligand binding (ligand: [3H] Kainic acid); format: cell membranes, Rattus norvegicus, Wistar, Brain, Membrane; details: Not Active = under 50% inhibition at 10 µM
[5] = biological target: T5, Muscarinic acetylcholine receptor M4 (Homo sapiens, UniProt P08173); format: cell membranes, CHO-K1, Membrane; note: in other assays of this panel Not Active means under 50% inhibition at 10 µM
T5 sequence (P08173 whole entry): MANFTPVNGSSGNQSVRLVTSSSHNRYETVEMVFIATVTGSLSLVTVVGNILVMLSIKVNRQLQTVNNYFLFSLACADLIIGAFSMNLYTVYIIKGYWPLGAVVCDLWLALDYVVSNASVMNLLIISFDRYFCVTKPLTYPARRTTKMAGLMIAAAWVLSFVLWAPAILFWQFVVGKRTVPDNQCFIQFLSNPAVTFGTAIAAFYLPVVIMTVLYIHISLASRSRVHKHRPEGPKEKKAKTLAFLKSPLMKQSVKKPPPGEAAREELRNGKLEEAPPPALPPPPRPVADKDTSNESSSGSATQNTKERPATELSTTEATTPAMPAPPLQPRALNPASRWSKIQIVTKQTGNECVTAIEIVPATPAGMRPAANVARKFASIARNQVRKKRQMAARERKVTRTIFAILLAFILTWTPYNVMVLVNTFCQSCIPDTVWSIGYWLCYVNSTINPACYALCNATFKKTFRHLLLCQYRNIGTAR

Acetylcholinesterase = Acetylcholinesterase (Homo sapiens, UniProt P22303); assay: DRUGMATRIX: Acetylcholinesterase enzyme inhibition (substrate: acetylthiocholine); format: cell-based, HEK293; details: hek293; Not Active = under 50% inhibition at 10 µM
Acetylcholinesterase, sequence (P22303 whole entry): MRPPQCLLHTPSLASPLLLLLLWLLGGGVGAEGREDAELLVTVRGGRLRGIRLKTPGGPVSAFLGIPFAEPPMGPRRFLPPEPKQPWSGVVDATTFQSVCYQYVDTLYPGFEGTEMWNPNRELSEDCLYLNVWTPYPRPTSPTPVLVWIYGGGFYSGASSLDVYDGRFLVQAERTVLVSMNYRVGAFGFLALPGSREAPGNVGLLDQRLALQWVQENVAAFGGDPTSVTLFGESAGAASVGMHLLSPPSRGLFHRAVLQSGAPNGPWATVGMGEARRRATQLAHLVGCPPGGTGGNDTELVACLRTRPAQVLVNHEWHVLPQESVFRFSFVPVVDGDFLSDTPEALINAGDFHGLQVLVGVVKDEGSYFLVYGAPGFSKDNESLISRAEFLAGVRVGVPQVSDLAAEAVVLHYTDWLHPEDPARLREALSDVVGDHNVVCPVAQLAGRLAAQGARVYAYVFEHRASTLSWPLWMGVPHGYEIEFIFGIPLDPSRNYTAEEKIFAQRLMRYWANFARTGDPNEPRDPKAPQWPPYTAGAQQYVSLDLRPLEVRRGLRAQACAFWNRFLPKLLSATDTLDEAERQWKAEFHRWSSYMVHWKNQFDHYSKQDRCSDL

D(1A) dopamine receptor = D(1A) dopamine receptor (Homo sapiens, UniProt P21728); assay: DRUGMATRIX: Dopamine D1 radioligand binding (ligand: [3H] SCH-23390); format: cell membranes, CHO, Membrane; details: cho; Not Active = under 50% inhibition at 10 µM
D(1A) dopamine receptor, sequence (P21728 whole entry): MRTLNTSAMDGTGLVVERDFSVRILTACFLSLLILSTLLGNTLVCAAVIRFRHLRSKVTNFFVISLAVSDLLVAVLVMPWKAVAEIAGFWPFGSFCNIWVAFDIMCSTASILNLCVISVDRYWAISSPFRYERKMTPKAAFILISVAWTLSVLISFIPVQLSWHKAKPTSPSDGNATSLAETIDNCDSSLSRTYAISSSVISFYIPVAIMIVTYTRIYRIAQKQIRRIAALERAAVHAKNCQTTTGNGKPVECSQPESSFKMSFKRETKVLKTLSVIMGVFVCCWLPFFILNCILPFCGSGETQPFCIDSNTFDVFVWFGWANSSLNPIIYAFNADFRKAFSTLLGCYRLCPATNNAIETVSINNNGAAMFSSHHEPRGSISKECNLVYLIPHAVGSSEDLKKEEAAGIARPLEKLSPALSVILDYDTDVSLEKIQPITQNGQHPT

[6] = DRUGMATRIX: Phosphodiesterase PDE3 enzyme inhibition (substrate: [3H]cAMP + cAMP); format: tissue-based, Homo sapiens; details: platelet; Not Active = under 50% inhibition at 10 µM
[7] = DRUGMATRIX: Calcium Channel Type L, Benzothiazepine radioligand binding (ligand: [3H] Diltiazem); format: cell membranes, Rattus norvegicus, Wistar, Brain, Membrane; details: Not Active = under 50% inhibition at 10 µM
D(3) dopamine receptor = D(3) dopamine receptor (Homo sapiens, UniProt P35462); assay: DRUGMATRIX: Dopamine D3 radioligand binding (ligand: [3H] Spiperone); format: cell membranes, CHO, Membrane; details: cho
D(3) dopamine receptor, sequence (P35462 whole entry): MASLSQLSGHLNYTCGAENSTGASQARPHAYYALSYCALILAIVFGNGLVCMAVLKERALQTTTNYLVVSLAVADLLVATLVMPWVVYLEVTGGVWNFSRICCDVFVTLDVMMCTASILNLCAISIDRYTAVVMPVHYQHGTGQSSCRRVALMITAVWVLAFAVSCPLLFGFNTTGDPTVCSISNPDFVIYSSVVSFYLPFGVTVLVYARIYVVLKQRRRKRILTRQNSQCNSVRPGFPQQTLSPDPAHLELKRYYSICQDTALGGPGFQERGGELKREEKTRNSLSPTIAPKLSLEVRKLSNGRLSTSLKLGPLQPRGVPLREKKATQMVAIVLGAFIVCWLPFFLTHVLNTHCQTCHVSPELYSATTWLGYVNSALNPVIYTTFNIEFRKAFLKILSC

Delta-type opioid receptor, sequence (P41143 whole entry): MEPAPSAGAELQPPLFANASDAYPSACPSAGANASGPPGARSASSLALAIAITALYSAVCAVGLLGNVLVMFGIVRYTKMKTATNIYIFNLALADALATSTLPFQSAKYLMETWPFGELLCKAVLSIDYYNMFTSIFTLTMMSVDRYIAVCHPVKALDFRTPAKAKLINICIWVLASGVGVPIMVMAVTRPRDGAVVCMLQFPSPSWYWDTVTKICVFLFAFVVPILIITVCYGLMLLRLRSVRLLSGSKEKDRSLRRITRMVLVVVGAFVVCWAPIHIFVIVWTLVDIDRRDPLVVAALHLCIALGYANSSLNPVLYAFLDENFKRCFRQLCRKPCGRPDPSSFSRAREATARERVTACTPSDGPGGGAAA

Compound | IC50 [1] | IC50 [2] | IC50 (Cannabinoid receptor 1) | IC50 [3] | IC50 (Neutrophil elastase) | IC50 (Endothelin-1 receptor) | IC50 [4] | Ki [4] | IC50 ([5]; cho-k1) | IC50 (Acetylcholinesterase) | IC50 (D(1A) dopamine receptor) | IC50 [6] | Ki [6] | IC50 [7] | Ki [7] | IC50 (D(3) dopamine receptor) | IC50 ([5]; read-out: IC50) | Ki ([5]; read-out: Ki) | IC50 ([7]; read-out: IC50) | Ki ([7]; read-out: Ki)
NS(=O)(=O)c1cc2c(cc1Cl)NCNS2(=O)=O [HYDROCHLOROTHIAZIDE] | Not Active | Not Active | Not Active | Not Active | Not Active | Not Active | Not Active | Not Active | Not Active | Not Active | Not Active | Not Active | Not Active | Not Active | Not Active | Not Active | – | – | – | –
O=P1(NCCCl)OCCCN1CCCl (stereo not given) [IFOSFAMIDE] | Not Active | Not Active | Not Active | Not Active | Not Active | Not Active | Not Active | Not Active | Not Active | Not Active | Not Active | Not Active | Not Active | Not Active | Not Active | Not Active | – | – | – | –
CN1CCC[C@H]1c1cccnc1 [NICOTINE] | Not Active | Not Active | Not Active | Not Active | Not Active | Not Active | Not Active | Not Active | Not Active | Not Active | Not Active | Not Active | Not Active | Not Active | Not Active | Not Active | – | – | – | –
O=C1CN=C(c2ccccc2)c2cc([N+](=O)[O-])ccc2N1 [NITRAZEPAM] | Not Active | Not Active | Not Active | Not Active | Not Active | Not Active | Not Active | Not Active | Not Active | Not Active | Not Active | Not Active | Not Active | Not Active | Not Active | Not Active | – | – | – | –
CC1COc2c(N3CCN(C)CC3)c(F)cc3c(=O)c(C(=O)O)cn1c23 (stereo not given) [OFLOXACIN] | Not Active | Not Active | Not Active | Not Active | Not Active | Not Active | Not Active | Not Active | Not Active | Not Active | Not Active | Not Active | Not Active | Not Active | Not Active | Not Active | – | – | – | –
Oc1cccc2cccnc12 [OXYQUINOLINE] | Not Active | Not Active | Not Active | Not Active | Not Active | Not Active | Not Active | Not Active | Not Active | Not Active | Not Active | Not Active | Not Active | Not Active | Not Active | Not Active | – | – | – | –
CN(C)[C@@H]1C(O)=C(C(N)=O)C(=O)[C@@]2(O)C(O)=C3C(=O)c4c(O)cccc4[C@@](C)(O)[C@H]3[C@H](O)[C@@H]12 [OXYTETRACYCLINE] | Not Active | Not Active | Not Active | Not Active | Not Active | Not Active | Not Active | Not Active | Not Active | Not Active | Not Active | Not Active | Not Active | Not Active | Not Active | Not Active | – | – | – | –
Fc1ccc([C@@H]2CCNC[C@H]2COc2ccc3c(c2)OCO3)cc1 [PAROXETINE] | Not Active | Not Active | Not Active | Not Active | Not Active | Not Active | Not Active | Not Active | – | Not Active | Not Active | Not Active | Not Active | – | – | Not Active | 0.244 µM | 0.034 µM | 0.373 µM | 0.331 µM
CC(C)(S)[C@@H](N)C(=O)O [PENICILLAMINE] | Not Active | Not Active | Not Active | Not Active | Not Active | Not Active | Not Active | Not Active | Not Active | Not Active | Not Active | Not Active | Not Active | Not Active | Not Active | Not Active | – | – | – | –
